Like-named read-outs stand apart in the source and are kept apart here.
Legend:
[1] = biological target: T1, full-length beta-Catenin (Uniprot ID P35222) (Homo sapiens, UniProt P35222); experiment: Fluorescence polarization IC50 (beta-catenin / 5FAM-TCF4 10-53 competition); format: binding; settings: fluorescence polarization; read-out: beta-Catenin FP IC50
T1 construct: 10 nM full-length beta-Catenin (Uniprot ID P35222)
T1 sequence (P35222 1-781): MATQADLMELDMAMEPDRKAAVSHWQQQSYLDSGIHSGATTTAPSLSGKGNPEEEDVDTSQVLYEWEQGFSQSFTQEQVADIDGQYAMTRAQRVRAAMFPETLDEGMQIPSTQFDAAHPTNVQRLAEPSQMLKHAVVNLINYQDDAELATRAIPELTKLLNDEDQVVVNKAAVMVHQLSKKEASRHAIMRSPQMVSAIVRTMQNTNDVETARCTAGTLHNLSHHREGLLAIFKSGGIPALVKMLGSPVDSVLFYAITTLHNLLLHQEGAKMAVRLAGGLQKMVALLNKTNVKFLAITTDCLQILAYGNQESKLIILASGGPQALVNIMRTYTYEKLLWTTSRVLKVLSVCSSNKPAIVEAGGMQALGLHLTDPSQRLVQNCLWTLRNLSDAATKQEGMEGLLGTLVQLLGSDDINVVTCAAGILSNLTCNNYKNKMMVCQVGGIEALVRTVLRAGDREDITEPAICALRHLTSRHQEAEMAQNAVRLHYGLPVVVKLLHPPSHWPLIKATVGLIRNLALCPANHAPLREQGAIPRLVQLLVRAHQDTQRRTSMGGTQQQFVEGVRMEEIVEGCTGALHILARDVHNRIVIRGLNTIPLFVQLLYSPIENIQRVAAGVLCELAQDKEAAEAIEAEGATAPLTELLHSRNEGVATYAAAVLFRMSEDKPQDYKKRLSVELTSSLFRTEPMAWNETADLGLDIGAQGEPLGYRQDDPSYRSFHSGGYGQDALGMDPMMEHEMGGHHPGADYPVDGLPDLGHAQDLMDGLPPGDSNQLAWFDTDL

[2] = biological target: T2, beta-catenin/TCF4 engagement (Homo sapiens, UniProt P35222); experiment: Nano-BRET target engagement assay (B-cat-Halo & TCF4-Luc in HEK293 cells); format: cell-based; settings: read-out: NanoBRET Abs IC50
T2 construct: expressed in transfected cells; host or cells: HEK293
T2 sequence (P35222 1-781): T1 sequence (P35222 1-781)

| Structure (SMILES) | IC50 [1] | IC50 ([2]; absolute IC50) | IC50 [2] |
| --- | --- | --- | --- |
| CC(=O)N1CCC[C@]12CC=CCCCC1(CCCC=CCCCOC(=O)N3CC[C@@](C(=O)N[C@@H](Cc4ccccc4C)C(=O)N[C@@H](Cc4csc5ccccc45)C(=O)N[C@@H](CCC(N)=O)C(N)=O)(C3)NC(=O)[C@H](CC(C)C)NC(=O)[C@H](Cc3ccccc3)NC(=O)[C@H](C)NC(=O)[C@H](C)NC(=O)[C@H](CN(CC(=O)O)CC(F)(F)F)NC(=O)[C@H](CC(=O)O)NC1=O)NC(=O)[C@H](CC(C)(C)C)NC(=O)[C@H](CC(=O)O)NC2=O (stereo partly drawn) [I-1725, Ac-PL3-Asp-Npg-B5-Asp-TfeGA-Ala-Ala-Phe-Leu-PyrS2-2MeF-BztA-Gln-NH2] | 15 nM | 10000 nM | – |
| CC(=O)N1CCC[C@]12CC=CCCCC1(CCCC=CCCCOC(=O)N3CCC(C(=O)N[C@@H](Cc4ccsc4)C(=O)N[C@@H](Cc4csc5ccccc45)C(=O)N[C@@H](CCC(N)=O)C(N)=O)(CC3)NC(=O)[C@H](CC(C)C)NC(=O)[C@H](Cc3ccccc3)NC(=O)[C@H](C)NC(=O)[C@H](C)NC(=O)[C@H](Cc3cccc(C(=O)O)c3)NC(=O)[C@H](CC(=O)O)NC1=O)NC(=O)[C@H](CC(C)(C)C)NC(=O)[C@H](CC(=O)O)NC2=O (stereo partly drawn) [I-2589, Ac-PL3-Asp-Npg-B5-Asp-3COOHF-Ala-Ala-Phe-Leu-SPip2-3Thi-BztA-Gln-NH2] | 25 nM | – | 15200 nM |
| CC(=O)N1CCC[C@]12CC=CCCCC1(CCCC=CCCCOC(=O)N3CC[C@@](C(=O)N[C@@H](Cc4ccccc4)C(=O)N[C@@H](Cc4csc5ccccc45)C(=O)N[C@@H](CC(N)=O)C(N)=O)(C3)NC(=O)[C@H](CC(N)=O)NC(=O)[C@H](Cc3ccccc3)NC(=O)[C@H](C)NC(=O)[C@H](CCCCNC(C)C)NC(=O)[C@H](CCC(N)=O)NC(=O)[C@H](CC(=O)O)NC1=O)NC(=O)[C@H](CC1CCCCC1)NC(=O)[C@H](CC(N)=O)NC2=O (stereo partly drawn) [I-2111, Ac-PL3-Asn-Cha-B5-Asp-Gln-iPrLys-Ala-Phe-Asn-PyrS2-Phe-BztA-Asn-NH2] | 180 nM | – | > 20000 nM |
| CC(=O)N1CCC[C@]12CC=CCCCC1(CCCC=CCCCOC(=O)N3CC[C@@](C(=O)N[C@@H](Cc4ccccc4Cl)C(=O)N[C@@H](Cc4ccc5ccccc5c4)C(=O)N[C@@H](CCC(N)=O)C(N)=O)(C3)NC(=O)[C@H](CC(C)C)NC(=O)[C@H](Cc3ccccc3)NC(=O)[C@H](C)NC(=O)[C@H](C)NC(=O)[C@H](CC(=O)O)NC(=O)[C@H](CC(=O)O)NC1=O)NC(=O)[C@H](CC(C)(C)C)NC(=O)[C@H](CC(=O)O)NC2=O (stereo partly drawn) [I-1237, Ac-PL3-Asp-Npg-B5-Asp-Asp-Ala-Ala-Phe-Leu-PyrS2-2C1F-2NapA-Gln-NH2] | 31 nM | 39900 nM | – |
| CC(C)C[C@H](NC(=O)[C@]12CCN(C1)C(=O)OCCCC=CCCCC1(CCCC=CCCC(=O)N3CCC[C@@]3(C)C(=O)N[C@@H](CC(=O)O)C(=O)N1)C(=O)N[C@@H](C)C(=O)N[C@@H](CC(=O)O)C(=O)N[C@@H](CC(=O)O)C(=O)N[C@@H](C)C(=O)N[C@@H](C)C(=O)N[C@@H](Cc1ccccc1)C(=O)N2)C(=O)N[C@@H](Cc1ccsc1)C(=O)N[C@@H](Cc1csc2ccccc12)C(=O)N[C@@H](CCC(N)=O)C(N)=O (stereo partly drawn) [I-2599, 4pentenyl-MePro-Asp-B5-Ala-Asp-Asp-Ala-Ala-Phe-PyrS2-Leu-3Thi-BztA-Gln-NH2] | 234 nM | – | > 20000 nM |
| CC(=O)N1CCC[C@]12CC=CCCCC1(CCCC=CCCCOC(=O)N3CC[C@@](C(=O)N[C@@H](Cc4ccsc4)C(=O)N[C@@H](Cc4csc5ccccc45)C(=O)N[C@@H](CCC(N)=O)C(N)=O)(C3)NC(=O)[C@H](CC(C)C)NC(=O)[C@H](Cc3ccccc3)NC(=O)[C@H](C)NC(=O)[C@H](C)NC(=O)[C@H](CCC(=O)S)NC(=O)[C@H](CC(=O)O)NC1=O)NC(=O)[C@H](CC(C)(C)C)NC(=O)[C@H](CC(=O)O)NC2=O (stereo partly drawn) [I-1949, Ac-PL3-Asp-Npg-B5-Asp-GluSH-Ala-Ala-Phe-Leu-PyrS2-3Thi-BztA-Gln-NH2] | 96 nM | – | 28500 nM |
| CC(=O)N1CCC[C@]12CC=CCCCC1(CCCC=CCCCOC(=O)N3CC[C@@](C(=O)N[C@@H](Cc4ccsc4)C(=O)N[C@@H](Cc4csc5ccccc45)C(=O)N[C@@H](CCC(N)=O)C(N)=O)(C3)NC(=O)[C@H](CC(C)C)NC(=O)C(Cc3cccc(C(=O)Oc4ccccc4)c3)NC(=O)[C@H](C)NC(=O)[C@H](C)NC(=O)[C@H](CN(CC(=O)O)CC(F)(F)F)NC(=O)[C@H](CC(=O)O)NC1=O)NC(=O)[C@H](CC(C)(C)C)NC(=O)[C@H](CC(=O)O)NC2=O (single isomer, unassigned) [I-2151, Ac-PL3-Asp-Npg-B5-Asp-TfeGA-Ala-Ala-3CO2PhF-Leu-PyrS2-3Thi-BztA-Gln-NH2] | 58 nM | – | 14600 nM |
| CC(=O)N1CCC[C@]12CC=CCCCC1(CCCC=CCCCOC(=O)N3CC[C@@](C(=O)N[C@@H](Cc4ccccc4Cl)C(=O)N[C@@H](Cc4csc5ccccc45)C(=O)N[C@@H](CCCN4CCC(F)(F)CC4)C(N)=O)(C3)NC(=O)[C@H]([C@@H](C)O)NC(=O)[C@H](Cc3ccccc3)NC(=O)[C@H](C)NC(=O)[C@H](C)NC(=O)[C@H](CN(CC(=O)O)CC(F)(F)F)NC(=O)[C@H](CC(=O)O)NC1=O)NC(=O)[C@H](CC(C)(C)C)NC(=O)[C@H](CC(=O)O)NC2=O (stereo partly drawn) [I-1607, Ac-PL3-Asp-Npg-B5-Asp-TfeGA-Ala-Ala-Phe-Thr-PyrS2-2C1F-BztA-F2PipNva-NH2] | 49 nM | 11900 nM | – |
| CC(=O)N1CCC[C@]12CC=CCCCC1(CCCC=CCCCOC(=O)N3CC[C@@](C(=O)N[C@@H](Cc4ccsc4)C(=O)N[C@@H](Cc4csc5ccccc45)C(=O)N[C@@H](CCC(N)=O)C(N)=O)(C3)NC(=O)[C@H]([C@@H](C)O)NC(=O)[C@H](Cc3ccccc3)NC(=O)[C@H](C)NC(=O)[C@H](C)NC(=O)[C@H](Cc3cccc(C(=O)O)c3)NC(=O)[C@H](CC(N)=O)NC1=O)NC(=O)[C@H](CC(C)(C)C)NC(=O)[C@H](CC(=O)O)NC2=O (stereo partly drawn) [I-2336, Ac-PL3-Asp-Npg-B5-Asn-3COOHF-Ala-Ala-Phe-Thr-PyrS2-3Thi-BztA-Gln-NH2] | 19 nM | 14400 nM | – |
| CC(=O)N1CCC[C@]12CC=CCCCC1(CCCC=CCCCCCC[C@@](C)(C(=O)N[C@@H](Cc3ccccc3C(F)(F)F)C(=O)N[C@@H](Cc3csc4ccccc34)C(=O)N[C@@H](CCC(N)=O)C(N)=O)NC(=O)[C@H](CC(N)=O)NC(=O)[C@H](Cc3ccccc3)NC(=O)[C@H](C)NC(=O)[C@H](C)NC(=O)[C@H](CC(=O)O)NC(=O)[C@H](CC(=O)O)NC1=O)NC(=O)[C@H](CC(C)(C)C)NC(=O)[C@H](CC(=O)O)NC2=O (stereo partly drawn) [I-1396, Ac-PL3-Asp-Npg-B5-Asp-Asp-Ala-Ala-Phe-Asn-S8-2F3MeF-BztA-Gln-NH2] | 33 nM | 15300 nM | – |
| CC(=O)N1CCC[C@]12CC=CCCCC1(CCCC=CCCCOC(=O)N3CC[C@@](C(=O)N[C@@H](Cc4ccc(F)cc4)C(=O)N[C@@H](Cc4csc5ccccc45)C(=O)N[C@@H](C)C(N)=O)(C3)NC(=O)[C@H](CC(C)C)NC(=O)[C@H](Cc3ccccc3)NC(=O)[C@H](C)NC(=O)[C@H](C)NC(=O)[C@H](Cc3cccc(C(=O)O)c3)NC(=O)[C@H](CC(=O)O)NC1=O)NC(=O)[C@H](CC(C)(C)C)NC(=O)[C@H](CC(=O)O)NC2=O (stereo partly drawn) [I-2263, Ac-PL3-Asp-Npg-B5-Asp-3COOHF-Ala-Ala-Phe-Leu-PyrS2-4FF-BztA-Ala-NH2] | 47 nM | 4300 nM | – |
| CC(=O)N1CCC[C@]12CC=CCCCC1(CCCC=CCCCOC(=O)N3CC[C@@](C(=O)N[C@@H](Cc4ccccc4Cl)C(=O)N[C@@H](Cc4csc5ccccc45)C(=O)N[C@@H](Cc4ccccc4)C(N)=O)(C3)NC(=O)[C@H](CO)NC(=O)[C@H](Cc3ccccc3)NC(=O)[C@H](C)NC(=O)[C@H](C)NC(=O)[C@H](Cc3cccc(C(=O)O)c3)NC(=O)[C@H](CC(=O)O)NC1=O)NC(=O)[C@H](CC(C)(C)C)NC(=O)[C@H](CC(=O)O)NC2=O (stereo partly drawn) [I-2029, Ac-PL3-Asp-Npg-B5-Asp-3COOHF-Ala-Ala-Phe-Ser-PyrS2-2C1F-BztA-Phe-NH2] | 35 nM | – | 26200 nM |
| CC(=O)N1CCC[C@]12CC=CCCCC1(CCCC=CCCCOC(=O)N3CC[C@@](C(=O)N[C@@H](Cc4ccsc4)C(=O)N[C@@H](Cc4csc5ccccc45)C(=O)N[C@@H](CCC(N)=O)C(N)=O)(C3)NC(=O)[C@H](CC(C)C)NC(=O)[C@H](Cc3ccccc3)NC(=O)[C@H](C)NC(=O)[C@H](C)NC(=O)[C@H](CCn3cc(-c4ccccc4C(=O)O)nn3)NC(=O)[C@H](CC(=O)O)NC1=O)NC(=O)[C@H](CC(C)(C)C)NC(=O)[C@H](CC(=O)O)NC2=O (stereo partly drawn) [I-2080, Ac-PL3-Asp-Npg-B5-Asp-[2COOHPh]TriAzDab-Ala-Ala-Phe-Leu-PyrS2-3Thi-BztA-Gln-NH2] | 45 nM | – | 28800 nM |

From patent US20240116985A1, “STAPLED PEPTIDES AND METHODS THEREOF” (priority 2020, published 2024)
